Assay results from patent publication US11065253B2, “Arylquinazolines” (Merck Patent GmbH, priority 2013, dated 2021).

Assays:
[1] = system: phospho-serine 2056 DNA-PK in HCT116 cells; test: DNA-PK phosphorylation at serine 2056 (cellular), ELISA in bleomycin-treated HCT116 cells; format: cell-based; conditions: Homo sapiens, HCT-116, phospho-serine 2056 DNA-PK, bleomycin-treated HCT116 cells; read-out: IC50 pDNA-PK
Outline: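 HCT116 cells were treated with 10 μM bleomycin plus test compounds for six hours at 37 °C. Phospho-Ser2056 DNA-PK measured by chemiluminescent ELISA, normalised to total DNA-PKcs signal; DMSO control as blank.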

[2] = molecular target: Kv11.1 (hERG) channel (Homo sapiens (Human), UniProt Q12809); test: Kv11.1 ion channel binding assay (Predictor hERG fluorescence polarisation); conditions: class symbol marked with asterisk (*)
Experimental: D) Kv11.1 Ion Channel Binding Assay
Kv11.1 (hERG=human ether a go-go related […]) is a cardiac K^+ channel which should if possible not interact with the test substances. This interaction is determined quantitatively with the aid of the Predictor™ hERG Fluorescence Polarizations (FP) Assays from Life Technologies. In the case of this assay principle, cardiomyocyte cell membranes having a certain proportion of Kv11.1 channels are isolated. A dye-labelled Kv11.1 binding partner gives a high fluorescence polarisation signal by interaction with the Kv11.1. In the case of displacement of the dye, a reduction in the fluorescence polarisation signal occurs.
The assay is carried out automatically as follows: 15 nl of the test substances (highest concentration: 10 mM, 10 concentrations: dilution factors 1:3.16, DMSO) are transferred into an empty microtitre plates having 384 wells by means of an acoustic pipetter. 3 μl of the isolated membranes are subsequently added. Membranes and test substances are incubated at 22° C. for 15 min (+/−5 min). In the next step, the dye-labelled binding partner is added, followed by incubation at 22° C. After incubation for two hours, the measurement of the fluorescence polarisation is carried out on an Envision multimode Reader. Measured raw data are standardised with the aid of Genedata Assay Analyzer. The IC50 and % effect values are calculated in Genedata Condoseo.

Sequence of Kv11.1 (hERG) channel (Q12809 whole entry): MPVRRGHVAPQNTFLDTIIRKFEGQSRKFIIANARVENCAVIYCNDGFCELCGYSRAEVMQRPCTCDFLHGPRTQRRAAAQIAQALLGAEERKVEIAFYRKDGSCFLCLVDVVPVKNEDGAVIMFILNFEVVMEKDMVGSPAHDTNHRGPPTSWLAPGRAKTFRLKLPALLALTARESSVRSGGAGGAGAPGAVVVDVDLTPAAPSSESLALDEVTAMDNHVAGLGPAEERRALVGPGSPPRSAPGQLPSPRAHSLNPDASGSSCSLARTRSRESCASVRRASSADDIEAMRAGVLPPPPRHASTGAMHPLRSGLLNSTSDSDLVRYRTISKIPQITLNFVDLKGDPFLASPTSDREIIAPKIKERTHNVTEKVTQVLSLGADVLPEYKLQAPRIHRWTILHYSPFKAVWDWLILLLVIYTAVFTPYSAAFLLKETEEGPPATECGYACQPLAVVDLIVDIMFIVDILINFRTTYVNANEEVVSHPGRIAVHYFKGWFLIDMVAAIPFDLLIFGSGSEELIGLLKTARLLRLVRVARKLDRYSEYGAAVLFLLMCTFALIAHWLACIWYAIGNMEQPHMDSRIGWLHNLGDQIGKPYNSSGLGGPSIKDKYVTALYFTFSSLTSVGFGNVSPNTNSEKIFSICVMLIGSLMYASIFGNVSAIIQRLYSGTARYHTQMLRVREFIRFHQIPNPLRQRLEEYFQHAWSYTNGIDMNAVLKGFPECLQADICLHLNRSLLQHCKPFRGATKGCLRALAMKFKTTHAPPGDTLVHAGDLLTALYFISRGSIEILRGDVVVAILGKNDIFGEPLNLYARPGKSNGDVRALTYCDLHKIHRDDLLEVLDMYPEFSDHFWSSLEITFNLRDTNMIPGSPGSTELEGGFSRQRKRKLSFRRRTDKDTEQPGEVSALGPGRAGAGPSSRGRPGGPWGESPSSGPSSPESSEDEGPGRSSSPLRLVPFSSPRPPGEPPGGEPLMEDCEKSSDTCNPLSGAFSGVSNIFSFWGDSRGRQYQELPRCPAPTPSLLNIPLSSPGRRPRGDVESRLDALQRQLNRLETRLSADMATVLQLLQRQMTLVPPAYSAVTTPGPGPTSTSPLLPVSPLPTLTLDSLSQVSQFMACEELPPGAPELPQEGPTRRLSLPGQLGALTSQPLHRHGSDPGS

**Q.** `CN1N=C(C(O)c2cc(-c3ncnc4cc(N5CCOCC5)ccc34)c(F)cc2Cl)CCC1=O` (centres unmarked) [Example 288, 6-{[2-Chloro-4-fluoro-5-(7-morpholin-4-yl-quinazolin-4-yl)-phenyl]hydroxy-methyl}-2-methyl-4,5-dihydro-2H-pyridazin-3-one] was tested. Which IC50 [1] did it give?
**A.** The IC50 was 5 to 10 µM.

**Q.** What about the “Ki [Kv1.11 hERG]” value [2] of the same compound?
**A.** The value was “A*”.
